Source: ChEMBL document CHEMBL4414591, “Isolation and Total Synthesis of Mabuniamide, a Lipopeptide from an Okeania sp. Marine Cyanobacterium” (J Nat Prod, 2019)
pIC50: −log10 of the molar value.

Legend:
Plasmodium falciparum = assay: Antiprotozoal activity against erythrocytic stage of Plasmodium falciparum 3D7 incubated for 72 hrs by lactate dehydrogenase assay; format: functional, organism-based; details: 3D7, 72 h
L6 [1] = assay: Cytotoxicity against rat L6 cells assessed as decrease in cell viability at 10 to 40 uM incubated for 22 hrs by MTT assay; format: cell-based; details: l6, 22 h
L6 [2] = assay: Induction of glucose uptake in rat L6 cells incubated for 22 hrs in presence of glucose by microplate reader assay; format: functional, cell-based

SMILES | pIC50 (Plasmodium falciparum) | Activity (L6 [1]) | Activity (L6 [2])
CCCC(=O)N(C)[C@@H](C)C(=O)N1CCC[C@H]1C(=O)N(C)[C@H](Cc1ccccc1)C(=O)N[C@@H](CC(C)C)C(=O)N(C)[C@@H](C(=O)N[C@H](C(=O)NCC(=O)N(C)[C@@H](Cc1ccccc1)C(=O)N1CCC[C@H]1C(=O)OC)C(C)C)C(C)C | 5.55 |  | 
CCCC(=O)N(C)[C@@H](C)C(=O)N1CCC[C@H]1C(=O)N(C)[C@@H](Cc1ccccc1)C(=O)N[C@@H](CC(C)C)C(=O)N(C)[C@@H](C(=O)N[C@H](C(=O)NCC(=O)N(C)[C@H](Cc1ccccc1)C(=O)N1CCC[C@H]1C(=O)OC)C(C)C)C(C)C (stereo in doubt; form 1) [listing 1 of 2 here] | 5.85 | Non-Toxic | 
CCCC(=O)N(C)[C@@H](C)C(=O)N1CCC[C@H]1C(=O)N(C)[C@@H](Cc1ccccc1)C(=O)N[C@@H](CC(C)C)C(=O)N(C)[C@@H](C(=O)N[C@H](C(=O)NCC(=O)N(C)[C@H](Cc1ccccc1)C(=O)N1CCC[C@H]1C(=O)OC)C(C)C)C(C)C (stereo in doubt; form 1) [listing 2 of 2 here] |  |  | Dose-dependent effect
CCCC(=O)N(C)[C@@H](C)C(=O)N1CCC[C@H]1C(=O)N(C)[C@@H](Cc1ccccc1)C(=O)N[C@@H](CC(C)C)C(=O)N(C)[C@@H](C(=O)N[C@H](C(=O)NCC(=O)N(C)[C@H](Cc1ccccc1)C(=O)N1CCC[C@H]1C(=O)OC)C(C)C)C(C)C (stereo in doubt; form 2) |  |  | Dose-dependent effect
